Test results published in patent publication US10131652B2, “Pyrimidinyloxy benzene derivatives as herbicides” (E. I. DU PONT DE NEMOURS AND COMPANY, priority 2014, dated 2018).

Legend:
Type in all cases: in vivo
[1] = tested on: Italian ryegrass (Lolium multiflorum); experiment: Test D pre-/postemergence plant response; conditions: Postemergence
Outline: (§1)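 Each compound, in non-phytotoxic solvent with surfactant, was sprayed onto soil right after sowing or onto young plants 2 to 18 cm tall. After 13 to 15 days under greenhouse conditions, effects were judged visually against controls on a 0 (no effect) to 100 (complete control) scale.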

[2] = tested on: pigweed (Amaranthus retroflexus); experiment: Test D pre-/postemergence plant response; conditions: Postemergence
Outline: as §1

[3] = tested on: morningglory (Ipomoea coccinea); experiment: Test D pre-/postemergence plant response; conditions: Postemergence
Outline: as §1

[4] = tested on: oilseed rape (Brassica napus); experiment: Test D pre-/postemergence plant response; conditions: Postemergence
Outline: as §1

soybean (Glycine max) = experiment: Test D pre-/postemergence plant response; conditions: Postemergence
Outline: as §1

[5] = tested on: ragweed (common ragweed, Ambrosia elatior); experiment: Test D pre-/postemergence plant response; conditions: Postemergence
Outline: as §1

[6] = tested on: waterhemp (common waterhemp, Amaranthus rudis); experiment: Test D pre-/postemergence plant response; conditions: Postemergence
Outline: as §1

[7] = tested on: barnyardgrass (Echinochloa crus-galli); experiment: Test D pre-/postemergence plant response; conditions: Postemergence; for Barnyardgrass plant response rating: scale 0 to 100 (0 no effect, 100 complete control); for Plant response rating, Barnyardgrass: scale 0 to 100, 0 no effect, 100 complete control
Outline: as §1

[8] = tested on: giant foxtail (Setaria faberii); experiment: Test D pre-/postemergence plant response; conditions: Postemergence; for Foxtail, Giant plant response rating: scale 0 to 100 (0 no effect, 100 complete control); for Plant response rating, Foxtail, Giant: scale 0 to 100, 0 no effect, 100 complete control
Outline: as §1

[9] = tested on: yellow nutsedge (Cyperus esculentus); experiment: Test D pre-/postemergence plant response; conditions: Postemergence
Outline: as §1

corn (Zea mays) = experiment: Test D pre-/postemergence plant response; conditions: Postemergence; for Corn plant response rating: scale 0 to 100 (0 no effect, 100 complete control); for Plant response rating, Corn: scale 0 to 100, 0 no effect, 100 complete control
Outline: as §1

[10] = tested on: chickweed (common chickweed, Stellaria media); experiment: Test D postemergence plant response; conditions: for Chickweed plant response rating: scale 0 to 100 (0 no effect, 100 complete control); for Plant response rating, Chickweed: scale 0 to 100, 0 no effect, 100 complete control
Outline: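 The formulated test chemicals were applied over the foliage of young potted plants (2 to 18 cm tall), which were then held under greenhouse conditions. Between days 13 and 15 each species was rated by eye versus controls, from 0 for no effect up to 100 for complete control.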

[11] = tested on: galium (catchweed bedstraw, Galium aparine); experiment: Test B postemergence plant response
Outline: (§2)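 Visual injury ratings, 0 = no effect to 100 = complete control, versus untreated controls approximately 10 days after postemergence spraying in greenhouse. Plants were at one- to two-leaf stage, 2 to 10 cm tall, in loam soil/sand blend; a dash denotes no result.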

[12] = tested on: blackgrass (Alopecurus myosuroides); experiment: Test B postemergence plant response
Outline: as §2

[13] = 31 g ai/ha, scale 0 to 100 (0 no effect, 100 complete control)
[14] = 62 g ai/ha, scale 0 to 100, 0 no effect, 100 complete control
[15] = 125 g ai/ha, scale 0 to 100, 0 no effect, 100 complete control
[16] = 125 g ai/ha, postemergence, 0 to 100 scale, 0 no effect, 100 complete control
[17] = Postemergence, 500 g ai/ha, 0 to 100 scale (0 no effect, 100 complete control)
[18] = Postemergence, 31 g ai/ha, 0 to 100 scale (0 no effect, 100 complete control)

FC(F)(F)c1cc(-c2c(Cl)cccc2Oc2ncc(Cl)cn2)no1 [Compound 169]
Ryegrass, Italian plant response rating [1, 13]: 0 | Plant response rating, Ryegrass, Italian [1, 14]: 5 | Plant response rating, Ryegrass, Italian [1, 15]: 15 | Pigweed plant response rating [2, 13]: 80 | Plant response rating, Pigweed [2, 14]: 80 | Plant response rating, Pigweed [2, 15]: 98 | Morningglory plant response rating [3, 13]: 15 | Plant response rating, Morningglory [3, 14]: 55 | Plant response rating, Morningglory [3, 15]: 65 | Oilseed Rape plant response rating [4, 13]: 5 | Plant response rating, Oilseed Rape [4, 14]: 10 | Plant response rating, Oilseed Rape [4, 15]: 60 | Soybean plant response rating (soybean (Glycine max); [13]): 5 | Plant response rating, Soybean (soybean (Glycine max); [14]): 15 | Plant response rating, Soybean (soybean (Glycine max); [15]): 25 | Ragweed plant response rating [5, 13]: 5 | Plant response rating, Ragweed [5, 14]: 25 | Plant response rating, Ragweed [5, 15]: 35 | Waterhemp plant response rating [6, 13]: 90 | Plant response rating, Waterhemp [6, 14]: 90 | Plant response rating, Waterhemp [6, 15]: 90 | Barnyardgrass plant response rating ([7]; 16 g ai/ha): 5 | Barnyardgrass plant response rating ([7]; 31 g ai/ha): 5 | Plant response rating, Barnyardgrass ([7]; 62 g ai/ha): 5 | Plant response rating, Barnyardgrass ([7]; 125 g ai/ha): 5 | Foxtail, Giant plant response rating ([8]; 16 g ai/ha): 0 | Foxtail, Giant plant response rating ([8]; 31 g ai/ha): 5 | Plant response rating, Foxtail, Giant ([8]; 62 g ai/ha): 25 | Plant response rating, Foxtail, Giant ([8]; 125 g ai/ha): 55 | Nutsedge, Yellow plant response rating [9, 13]: 0 | Plant response rating, Nutsedge, Yellow [9, 14]: 0 | Plant response rating, Nutsedge, Yellow [9, 15]: 5 | Corn plant response rating (corn (Zea mays); 16 g ai/ha): 0 | Corn plant response rating (corn (Zea mays); 31 g ai/ha): 5 | Plant response rating, Corn (corn (Zea mays); 62 g ai/ha): 10 | Plant response rating, Corn (corn (Zea mays); 125 g ai/ha): 10 | Chickweed plant response rating ([10]; 16 g ai/ha): 5 | Chickweed plant response rating ([10]; 31 g ai/ha): 40 | Plant response rating, Chickweed ([10]; 62 g ai/ha): 70 | Plant response rating, Chickweed ([10]; 125 g ai/ha): 80 | Plant response rating, Galium [11, 16]: 100 | Plant response rating, Galium [11, 17]: 100 | Plant response rating, Blackgrass [12, 16]: 50 | Plant response rating, Blackgrass [12, 17]: 90

FC(F)(F)c1cc(-c2c(Br)cccc2Oc2ncc(Cl)cn2)no1 [Compound 170]
Ryegrass, Italian plant response rating [1, 13]: 0 | Plant response rating, Ryegrass, Italian [1, 14]: 5 | Plant response rating, Ryegrass, Italian [1, 15]: 5 | Pigweed plant response rating [2, 13]: 90 | Plant response rating, Pigweed [2, 14]: 98 | Plant response rating, Pigweed [2, 15]: 98 | Morningglory plant response rating [3, 13]: 30 | Plant response rating, Morningglory [3, 14]: 70 | Plant response rating, Morningglory [3, 15]: 98 | Oilseed Rape plant response rating [4, 13]: 5 | Plant response rating, Oilseed Rape [4, 14]: 40 | Plant response rating, Oilseed Rape [4, 15]: 25 | Soybean plant response rating (soybean (Glycine max); [13]): 10 | Plant response rating, Soybean (soybean (Glycine max); [14]): 10 | Plant response rating, Soybean (soybean (Glycine max); [15]): 35 | Ragweed plant response rating [5, 13]: 5 | Plant response rating, Ragweed [5, 14]: 10 | Plant response rating, Ragweed [5, 15]: 10 | Waterhemp plant response rating [6, 13]: 80 | Plant response rating, Waterhemp [6, 14]: 100 | Plant response rating, Waterhemp [6, 15]: 85 | Barnyardgrass plant response rating ([7]; 16 g ai/ha): 0 | Barnyardgrass plant response rating ([7]; 31 g ai/ha): 0 | Plant response rating, Barnyardgrass ([7]; 62 g ai/ha): 5 | Plant response rating, Barnyardgrass ([7]; 125 g ai/ha): 5 | Foxtail, Giant plant response rating ([8]; 16 g ai/ha): 5 | Foxtail, Giant plant response rating ([8]; 31 g ai/ha): 30 | Plant response rating, Foxtail, Giant ([8]; 62 g ai/ha): 40 | Plant response rating, Foxtail, Giant ([8]; 125 g ai/ha): 40 | Nutsedge, Yellow plant response rating [9, 13]: 5 | Plant response rating, Nutsedge, Yellow [9, 14]: 5 | Plant response rating, Nutsedge, Yellow [9, 15]: 10 | Corn plant response rating (corn (Zea mays); 16 g ai/ha): 5 | Corn plant response rating (corn (Zea mays); 31 g ai/ha): 5 | Plant response rating, Corn (corn (Zea mays); 62 g ai/ha): 5 | Plant response rating, Corn (corn (Zea mays); 125 g ai/ha): 5 | Chickweed plant response rating ([10]; 16 g ai/ha): 30 | Chickweed plant response rating ([10]; 31 g ai/ha): 65 | Plant response rating, Chickweed ([10]; 62 g ai/ha): 90 | Plant response rating, Chickweed ([10]; 125 g ai/ha): 100 | Plant response rating, Galium [11, 16]: 80 | Plant response rating, Galium [11, 17]: 100 | Plant response rating, Blackgrass [12, 16]: 50 | Plant response rating, Blackgrass [12, 17]: 60

CC(F)(F)c1cc(-c2ccccc2Oc2ncc(Cl)cn2)on1 [Compound 178]
Plant response rating (scale 0 to 100), Ryegrass, Italian ([1]; 16 g ai/ha): 0 | Ryegrass, Italian plant response rating [1, 13]: 0 | Ryegrass, Italian plant response rating [1, 14]: 5 | Plant response rating, Ryegrass, Italian [1, 15]: 5 | Plant response rating (scale 0 to 100), Pigweed ([2]; 16 g ai/ha): 80 | Pigweed plant response rating [2, 13]: 85 | Pigweed plant response rating [2, 14]: 85 | Plant response rating, Pigweed [2, 15]: 90 | Plant response rating (scale 0 to 100), Morningglory ([3]; 16 g ai/ha): 70 | Morningglory plant response rating [3, 13]: 100 | Morningglory plant response rating [3, 14]: 100 | Plant response rating, Morningglory [3, 15]: 90 | Plant response rating (scale 0 to 100), Oilseed Rape ([4]; 16 g ai/ha): 35 | Oilseed Rape plant response rating [4, 13]: 80 | Oilseed Rape plant response rating [4, 14]: 80 | Plant response rating, Oilseed Rape [4, 15]: 95 | Plant response rating (scale 0 to 100), Soybean (soybean (Glycine max); 16 g ai/ha): 15 | Soybean plant response rating (soybean (Glycine max); [13]): 35 | Soybean plant response rating (soybean (Glycine max); [14]): 35 | Plant response rating, Soybean (soybean (Glycine max); [15]): 45 | Plant response rating (scale 0 to 100), Ragweed ([5]; 16 g ai/ha): 5 | Ragweed plant response rating [5, 13]: 5 | Ragweed plant response rating [5, 14]: 20 | Plant response rating, Ragweed [5, 15]: 35 | Plant response rating (scale 0 to 100), Waterhemp ([6]; 16 g ai/ha): 70 | Waterhemp plant response rating [6, 13]: 80 | Waterhemp plant response rating [6, 14]: 85 | Plant response rating, Waterhemp [6, 15]: 90 | Plant response rating (scale 0 to 100), Barnyardgrass ([7]; 16 g ai/ha): 10 | Barnyardgrass plant response rating ([7]; 31 g ai/ha): 15 | Plant response rating, Barnyardgrass ([7]; 62 g ai/ha): 10 | Plant response rating, Barnyardgrass ([7]; 125 g ai/ha): 20 | Plant response rating (scale 0 to 100), Foxtail, Giant ([8]; 16 g ai/ha): 0 | Foxtail, Giant plant response rating ([8]; 31 g ai/ha): 5 | Plant response rating, Foxtail, Giant ([8]; 62 g ai/ha): 5 | Plant response rating, Foxtail, Giant ([8]; 125 g ai/ha): 25 | Plant response rating (scale 0 to 100), Nutsedge, Yellow ([9]; 16 g ai/ha): 5 | Nutsedge, Yellow plant response rating [9, 13]: 5 | Nutsedge, Yellow plant response rating [9, 14]: 10 | Plant response rating, Nutsedge, Yellow [9, 15]: 5 | Plant response rating (scale 0 to 100), Corn (corn (Zea mays); 16 g ai/ha): 0 | Corn plant response rating (corn (Zea mays); 31 g ai/ha): 5 | Plant response rating, Corn (corn (Zea mays); 62 g ai/ha): 5 | Plant response rating, Corn (corn (Zea mays); 125 g ai/ha): 10 | Plant response rating (scale 0 to 100), Chickweed ([10]; 16 g ai/ha): 50 | Chickweed plant response rating ([10]; 31 g ai/ha): 50 | Plant response rating, Chickweed ([10]; 62 g ai/ha): 60 | Plant response rating, Chickweed ([10]; 125 g ai/ha): 80 | Plant response rating, Galium [11, 16]: 100 | Plant response rating, Galium [11, 18]: 80 | Plant response rating, Blackgrass [12, 16]: 40 | Plant response rating, Blackgrass [12, 18]: 10
